Test system: hypoxia-induced pulmonary hypertension
Test: Hypoxia-induced pulmonary hypertension in rats (hypobaric-hypoxic vs ambient air, 3 weeks)
Format: in vivo, Spraque-Dawley rats
Settings: for % wall thickness (medial hypertrophy index, pulmonary artery) / RV/LV + S(%) (right ventricle/left ventricular + septum weight ratio) / mPAP (mean pulmonary arterial pressure): 50 mg/kg intraperitoneal once daily for 3 weeks; for mPAP (mean pulmonary arterial pressure): right cardiac catheterization
Excerpt: This study is designed to investigate the effects of PDGF receptor signal transduction blockade on the development of hypoxia-induced pulmonary hypertension using a PDGF receptor-selective tyrosine kinase inhibitor, e.g. COMPOUND I, COMPOUND I mesylate.
The methodology as described by Ortiz L A, Champion H C, Lasky J A and col.
Pulmonary arterial pressure (PAP) can be measured in anesthetized mice with the use of a single-lumen catheter (Nu-Med, Hopkinton, N.Y.). The catheter (145 mm in length, 0.25 mm OD) has a specially curved tip to facilitate passage through the right heart, main pulmonary artery, and the left or right pulmonary artery. Immediately after placement of the pulmonary catheter (30 min in average), pressure in the main pulmonary artery is measured with a pressure transducer (Schneider/Namic, Glenns Falls, N.Y.), and mean PAP is derived electronically and recorded continuously. For the determination of pulmonary arterial wedge pressure, the catheter is advanced to the left or right pulmonary artery and wedged with continuous measurement of the pressure waveform.
Lung morphology and evaluation of right ventricular hypertrophy can be performed as below. The heart is perfused with 0.9% NaCl to remove residual blood, and the right lung is fixed in situ for 2 h by intratracheal instillation of 10% neutral formalin (Sigma, St. Louis, Mo.) at a constant pressure of 30 cmH2O and was preserved in fixative for 24 h. Lung tissues are then sectioned sagittally and embedded in paraffin. Sections (4 μm thick) are generated and mounted on positively charged slides (Fisher Scientific, Pittsburgh, Pa.). Slides are stained with hematoxylin-eosin for light microscopic examination. Immediately after death, hearts are resected to evaluate right ventricular hypertrophy. The atria are removed up to the plane of the atrial-ventricular valves. The right ventricle (RV) free wall is then dissected free of the left ventricle (LV) and septum. The RV and LV plus septum are weighed and the RV-to-LV+septum ratio is calculated.
Ten Spraque-Dawley rats are exposed to hypobaric-hypoxic (HH) conditions and ten ambient air (AA) animals are used as controls. The rats in both conditions are randomized to receive intraperitoneal injections with either once daily COMPOUND I (50 mg/kg) or placebo for 3 weeks. Right cardiac catheterizations are used to evaluate the mean pulmonary arterial pressure (mPAP). Subsequently, the rats are sacrificed for the evaluation of their medial hypertrophy index (% wall thickness of the pulmonary artery), and right ventricular hypertrophy (right ventricle/left ventricular +septum weight ratio; RV/LV+S).

Question: What does the source list for `Cc1ccc(NC(=O)c2ccc(CN3CCN(C)CC3)cc2)cc1Nc1nccc(-c2cccnc2)n1` [COMPOUND I]?
Answer: % wall thickness (medial hypertrophy index, pulmonary artery) (ambient air (AA) rats): 10.32 ± 0.33%; RV/LV + S(%) (right ventricle/left ventricular + septum weight ratio) (ambient air (AA) rats): 24.60 ± 1.08%; mPAP (mean pulmonary arterial pressure) (ambient air (AA) rats): 16.20 ± 1.93 mmHg; % wall thickness (medial hypertrophy index, pulmonary artery) (hypobaric-hypoxic (HH) rats): 14.77 ± 0.73%; RV/LV + S(%) (right ventricle/left ventricular + septum weight ratio) (hypobaric-hypoxic (HH) rats): 35.85 ± 1.29%; mPAP (mean pulmonary arterial pressure) (hypobaric-hypoxic (HH) rats): 19.50 ± 1.32 mmHg; lowering of the index of % wall thickness (rats, 50 mg/kg i.p. once daily, 3 weeks, p=0.001): 59%; reduction of hypoxic-induced pulmonary hypertension (rats, 50 mg/kg i.p. once daily, 3 weeks, p=0.002): 80%; reduction of RV hypertrophy (rats, 50 mg/kg i.p. once daily, 3 weeks, p=0.006): 46%

— patent US20060154936A1, “Use of n-'5-'4-(4-methylpiperaziomethyl)-benzoylamido!-2-methylphenyl!-4-(3-pyridyl)2-pyridine-amine for the treatment of pulmonary hypertension” (priority 2002, published 2006)
